The test addresses T1, methylenetetrahydrofolate dehydrogenase 1-like (MTHFD1L) (Homo sapiens, UniProt Q6UB35).
T1 construct: MTHFD1L (68–978 AA), recombinant from E. coli, MBP tag cleaved with thrombin
T1 sequence (Q6UB35 68-978): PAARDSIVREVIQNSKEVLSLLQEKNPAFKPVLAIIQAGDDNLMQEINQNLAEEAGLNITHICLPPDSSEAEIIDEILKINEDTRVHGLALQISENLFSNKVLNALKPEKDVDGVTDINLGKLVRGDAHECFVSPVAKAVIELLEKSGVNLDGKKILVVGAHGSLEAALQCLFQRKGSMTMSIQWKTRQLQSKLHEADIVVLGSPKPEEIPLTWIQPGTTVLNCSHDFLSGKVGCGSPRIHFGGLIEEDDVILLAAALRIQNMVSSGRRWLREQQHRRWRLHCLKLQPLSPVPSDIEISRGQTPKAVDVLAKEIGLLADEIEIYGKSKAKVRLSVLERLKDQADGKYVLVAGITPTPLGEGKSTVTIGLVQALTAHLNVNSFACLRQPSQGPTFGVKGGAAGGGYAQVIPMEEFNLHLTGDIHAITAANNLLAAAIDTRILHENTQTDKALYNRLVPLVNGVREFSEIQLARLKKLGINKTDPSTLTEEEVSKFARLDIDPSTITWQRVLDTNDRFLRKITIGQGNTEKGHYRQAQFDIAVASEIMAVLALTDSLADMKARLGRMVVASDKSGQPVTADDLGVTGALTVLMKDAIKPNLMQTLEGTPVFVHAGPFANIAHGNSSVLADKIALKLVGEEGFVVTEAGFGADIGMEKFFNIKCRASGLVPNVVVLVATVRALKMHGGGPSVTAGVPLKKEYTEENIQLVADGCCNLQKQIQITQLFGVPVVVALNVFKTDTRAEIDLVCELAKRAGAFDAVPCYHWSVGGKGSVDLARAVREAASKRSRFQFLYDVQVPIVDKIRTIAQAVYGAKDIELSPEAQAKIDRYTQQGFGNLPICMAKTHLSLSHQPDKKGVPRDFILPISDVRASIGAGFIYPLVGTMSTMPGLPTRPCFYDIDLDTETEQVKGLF
Briefly: SPR (Biacore T200, steady-state affinity); supported by NMR STD, DARTS and ABPP competition. It is filed as binding. In general terms: SPR reads the build-up and loss of mass on a sensor chip optically.

The source of these data is publication PMC11965064, “Identification and verification of methylenetetrahydrofolate dehydrogenase 1-like protein as the binding target of natural product pseudolaric acid A” (Natural Products and Bioprospecting, 2025).

The Kd is the equilibrium constant for the complex coming apart. A lower Kd goes with higher affinity.

Each structure is given as a SMILES string.

The compound `CC(=O)O[C@]12CCC(C)=CC[C@]13CC[C@H]2[C@@](C)(/C=C/C=C(\C)C(=O)O)OC3=O` [PAA, pseudolaric acid A] returned a Kd of around 4.05 µM.
